In patent US8653023B1, “Dual beneficial effect of dopamine enhancing and neuroprotective actions of PKC delta inhibitors for treatment of Parkinson's disease” (Iowa State University Research Foundation, Inc., priority 2006, dated 2014):

Experiments:
dopaminergic N27 cells = conditions: cited from earlier work
[1] = system: primary mesencephalic dopaminergic neuronal cells; assay type: cell-based, mice; conditions: 10 μM MPP+ for 48 hrs
Description: Primary mesencephalic neuronal cultures were prepared from the ventral mesencephalon of gestational 16-18-day-old mice embryos as described previously (Yang et al., 2004). Mesencephalic tissues were dissected and maintained in ice-cold Ca^2+-free HESS and then dissociated in HESS solution containing trypsin-EDTA (0.25%) for 20 min at 37° C. The dissociated cells were then plated at equal density (0.5×10^6 cells) in 30-mm-diameter tissue culture wells precoated with poly-D-lysine (1 mg/ml). Cultures were maintained in a chemically defined medium consisting of neurobasal medium fortified with B-27 supplements, L-glutamine (500 μM), penicillin (100 IU/ml), and streptomycin (100 μg/ml) (Life Technologies). The cells were maintained in a humidified CO2 incubator (5% CO2, 37° C.) for 24 hr and then treated with cytosine arabinoside (10 μM) for 24 hr to inhibit glial cell proliferation. Half of the culture medium was replaced every 2 days. Approximately 6-7-day-old cultures were used for experiments. […]
After treatment, the primary mesencephalic neurons were fixed with 4% paraformaldehyde and processed for immunocytotochemical staining. […] Then the coverslips containing stained cells were washed with PBS, mounted on a slide, and viewed under a Nikon inverted fluorescence microscope (Model TE-2000U); images were captured with a SPOT digital camera (Diagnostic Instruments, Sterling Heights, Mich.).
We used Metamorph software (Universal Imaging, Version 5.0) for measurement of TH^+ cells and neuronal processes in primary neurons from each coverslip. For measurement of TH cell count, the images were first thresholded, and then neuronal count and volume were measured using the Integrated Morphometry Analysis (IMA) function. The data were logged to an Excel spreadsheet with defined row and column positions and then analyzed. […] The data were exported to an Excel spreadsheet and analyzed. TH^+ neurons and their processes were counted in at least six individual cultures for each treatment. This method is a modified version of methodology recently used for quantification of neuronal processes.

[2] = system: MPTP-treated C57 black mice; assay: TH+ neuron count in substantia nigra pars compacta of MPTP mice (stereology); assay type: in vivo; conditions: MPTP 30 mg/kg for 5 continuous days
Description: (§1) Six to 8-week-old […] mice weighing 30 g were housed in standard conditions: constant temperature (22±1° C.), humidity (relative, 30%) and a 12-h light/dark cycle, and were allowed free access to food and water. The animals and protocol procedures were approved and supervised by the Committee on Animal Care (COAC) at the Iowa State University. Rottlerin was dissolved in 1% dimethyl sulfoxide (DMSO) and was administered intraperitoneally at various doses. An equal volume of DMSO was given to controls. Rottlerin and DMSO administrations were started 24 h before the injections of the MPTP and continued for 5 days in the MPTP model. In the chronic regimens of MPTP administration, MPTP in phosphate-buffered saline (PBS) was injected intraperitoneally at doses of 30 mg/kg, once a day. Mice were sacrificed 2 days after the MPTP injections, and the striata were dissected for catecholamine analysis. Additionally, rottlerin alone (0.3-20 mg/kg) was administered via intraperitoneally or orally and then brain tissues were subjected to neurochemical analyses (FIG. 8). The mesencephalons were fixed in 4% paraformaldehyde for 5 days for tyrosine hydroxylase (TH) immunostaining.
Brains removed following cervical dislocation were post-fixed in paraformaldehyde and used for TH immunolabelling and stereological studies. Fixed brains were cut into 30-μm sections and collected in cryoprotectant. Sections were rinsed in PBS at room temperature before immunostaining, then incubated with a anti-TH antibody as described (Thiruchelvam, McCormack et al. 2003; Thiruchelvam, Powers et al. 2004). The total number of TH^+ and TH Nissl-stained neurons in the SNpc were counted using the optical fractionator and previously described counting criteria (Thiruchelvam, McCormack et al. 2003; Thiruchelvam, Powers et al. 2004). After delineation of the region at low magnification (4× objective), every fourth section from the entire substantia nigra was sampled at higher magnification (100× objective) using StereoImager (Microbrightfield, Vt.).

[3] = system: MPTP-treated C57 black mice; assay: Locomotor activity of MPTP-treated mice (VersaMax); assay type: in vivo; conditions: MPTP treatment alone, 1 day after treatment, 20-min session
From the text: Behavioral data were collected using VersaMax Animal Activity Monitors (AccuScan Model RXYZCM-16, Columbus, Ohio). Each chamber was 40×40×30.5 cm^3, made of clear Plexiglas and covered with a Plexiglas lid with air-holes. Infrared monitoring sensors were located every 2.54 cm along the perimeter (16 infrared beams along each side) and 2.5 cm above the floor. Two additional sets of 16 sensors were located 8.0 cm above the floor on opposite sides. Data were collected and analyzed by a VersaMax Analyzer (AccuScan Model CDA-8, Columbus, Ohio) which in turn sent information to an IBM computer where it was stored for future analyses. Locomotor activity was presented as horizontal movement and vertical movement. All data are expressed as percent of the vehicle-treated control group (mean 6 SEM) and were obtained 1 day after MPTP or vehicle treatment in a 20-min test session.

[4] = system: MPTP-treated C57 black mice; assay: MPTP-induced striatal dopamine depletion (HPLC-EC); assay type: in vivo; conditions: MPTP 30 mg/kg for 5 days alone
Description: as §1
DA and DOPAC levels in brain striatal tissues were determined by high-performance liquid chromatography with electrochemical detection (HPLC-EC); samples were prepared as described previously (Kitazawa, Anantharam et al. 2001). Briefly, neurotransmitters were extracted from samples using 0.1M perchloric acid containing 0.05% Na2EDTA and 0.1% Na2S2O5. The extracts were filtered in 0.22 micron spin tubes and 20 μl of the samples was loaded for analysis. DA and DOPAC were separated isocratically by a reversed-phase column with a flow rate of 0.7 ml/min. An HPLC system (ESA Inc., Bedford, Mass.) with an ESA automatic sampler (model 542) was used for these experiments. The electrochemical detection (EC) system consisted of an ESA coulochem model 5100A with a microanalysis cell model 5014A and a guard cell model 5020 (ESA Inc., Bedford, Mass.). The DA and DOPAC levels were measured as pg/mg protein and expressed as percent of control.

[5] = system: tyrosine hydroxylase (TH); assay: TH phosphorylation in N27 cells (Western blot, immunofluorescence); assay type: cell-based, rat
Description: (§2) PC12 cells, differentiated N27 dopaminergic cells and primary mesencephalic neurons were exposed to 1-10 μM rottlerin for the duration of the experiment. DMSO (0.01%) was used as vehicle control. PKCδ-DN- and Lac Z-expressing N27 cells were only treated with 0.01% DMSO. […] Untreated or vehicle treated cells were used as control samples.
(§3) Cell and brain lysates containing equal amounts of protein were loaded in each lane and separated on a 10-12% SDS-PAGE gel as described previously (Kaul et al., 2003). After the separation, proteins were transferred to nitrocellulose membrane, and nonspecific binding sites were blocked by treating with 5% nonfat dry milk powder. The membranes were then treated with primary antibodies directed against PKCδ (rabbit polyclonal or mouse monoclonal, 1:2000 dilution), TH (rabbit polyclonal or mouse monoclonal, 1:1000), phospho TH-ser40 (rabbit polyclonal, 1:1000), phospho TH-ser31 TH (rabbit polyclonal, 1:1000), or PP2A (mouse monoclonal, 1:1000). The primary antibody treatments were followed by treatment with secondary HRP-conjugated anti-rabbit or anti-mouse IgG (1:2000) for 1 hr at RT. Secondary antibody-bound proteins were detected using Amersham's ECL chemiluminescence kit. To confirm equal protein loading, blots were reprobed with a β-actin antibody (1:5000 dilution). Western blot images were captured with a Kodak 2000 MM imaging system and data were analyzed using 1D Kodak imaging analysis software.
Immunostaining of PKCδ, TH, Ser40 P-TH and Ser31 P-TH was performed in PC12, N27 and primary mesencephalic neurons. Cells were grown on poly-L-Lysine-coated glass cover slips. After treatment, the cells were fixed with 4% paraformaldehyde and processed for immunohistochemical staining. First, non-specific sites were blocked with 5% normal goat serum containing 0.4% BSA and 0.2% Triton-X 100 in PBS for 20 min. Cells were then incubated with antibodies directed against PKCδ (1:500 dilution), TH (1:500 dilution), and P-THSer40 (1:500 dilution) overnight at 4° C. followed by incubation with either Alexa 488-conjugated (green, 1:1000) or Cy3-conjugated (red, 1:1000) secondary antibody for 1 hr at RT. Secondary antibody treatments were followed by incubation with Hoechst 33342 (10 μg/ml) for 3 min at room temperature to stain the nucleus. Then the coverslips containing stained cells were washed with PBS, mounted on a slide, and viewed under a Nikon inverted fluorescence microscope (Model TE-2000U); images were captured with a SPOT digital camera (Diagnostic Instruments, Sterling Heights, Mich.).

[6] = system: tyrosine hydroxylase (TH); assay: TH activity (DOPA levels after NSD-1015) in N27 cells; assay type: cell-based, rat; conditions: okadaic acid 2 μM for 2 hr
Description: Plasmid pPKCδ^K376R-V5 encodes the loss of function PKCδ-V5 epitope tagged mutant protein; K376R refers to the mutation of the lysine residue at position 376 to arginine in the catalytic site resulting in inactivation of the kinase. Plasmid pLacZ-V5 encodes the β-galactosidase protein alone with a V5-epitope and is used as a vector control. N27 cells stably expressing PKCδ^K376R-V5 (herein referred to as PKCδ-DN cells) and LacZ alone-expressing cells (LacZ cells) were cultured as described previously (Kitazawa et al., 2005). PKCδ-DN or LacZ expressing N27 cells were identified by immunostaining of the C-terminal V5 epitope on expressed proteins and were differentiated with cAMP analogs (e.g. dibutyral cAMP) prior to experiments. PKCδ-DN and LacZ were also transiently expressed in mouse primary mesencephalic neurons using an AMAXA® Nucleofector™ kit (AMAXA GmbH, Germany). As described above, primary mesencephalic neurons were prepared from the midbrain of 16-18-day-old mice embryos. After digestion with trypsin-EDTA-HBSS, the primary neurons were homogenously resuspended with transfection buffer provided with the kit to a final concentration of 4-5×10^6 neurons/100 μl and mixed with 1 μg plasmid DNA encoding either PKCδ-DN-V5 or LacZ-V5. […] Transfection efficiency was >75% as determined by immunostaining of V5-expression. […]

PKCδ = PKCδ expression in siRNA-transfected N27 cells (Western blot); assay type: cell-based, rat; conditions: vs siRNA-NS
Description: Small interfering RNAs (siRNAs) were prepared by an in vitro transcription method as described previously (Yang et al., 2004). Cy-3 labeling of siRNA and transfections were carried out as described in a recent publication (Yang et al., 2004). We used the siRNA PKCδ-4 and non-specific siRNA (siRNA-NS) for this study.
as §3, with “To confirm equal protein loading, blots were reprobed with a β-actin antibody (1:5000 dilution).” left out

N27 cells = assay: Cellular DA and DOPAC levels in N27 cells (HPLC-EC); assay type: cell-based, rat; conditions: siRNA-transfected N27 cells
Description: as §2
DA and DOPAC levels in PC12, N27 cells and in brain striatal tissues were determined by high-performance liquid chromatography with electrochemical detection (HPLC-EC); samples were prepared as described previously (Kitazawa et al., 2001). The DA and DOPAC levels were measured as pg/mg protein and expressed as percent of control.

[7] = N27 cells, okadaic acid 2 μM for 2 hr

O=c1c(-c2ccc(O)cc2)coc2cc(O)cc(O)c12 [genistein]
H2O2 and MPP+-induced apoptotic cell death (genistein: also PKCδ cleavage, kinase activation) (dopaminergic N27 cells): dramatically inhibited

C[n+]1ccc(-c2ccccc2)cc1 [MPP^+, 1-methyl-4-phenylpyridinium]
cell death and loss of neurites length of TH+ neurons [1]: 90%

CN1CC=C(c2ccccc2)CC1 [MPTP, 1-methyl-4-phenyl-1,2,3,6-tetrahydropyridine]
cell loss in SNpc as compared to controls [2]: 40%
locomotor activity compared to control group [3]: 55.17%
dopamine level in striatum [4]: 14.49±3.77 pg DA/mg tissue weight
reduction of striatal dopamine versus vehicle [4]: −94%

C=C1[C@@H](O)[C@@H]2O[C@]3(CC[C@H](/C=C/[C@@H](C)[C@@H]4CC(C)=C[C@@]5(O[C@H](C[C@@](C)(O)C(=O)O)CC[C@H]5O)O4)O3)CC[C@H]2O[C@@H]1[C@@H](O)C[C@H](C)[C@H]1O[C@@]2(CCCCO2)CC[C@H]1C [okadaic acid]
baseline THser40 phosphorylation levels versus untreated cells [5, 7]: increase
levels of total TH versus untreated cells [5, 7]: similar
DOPA levels (TH activity) [6]: 1434±212.6 pg/10^6 cells/hr

PKCδ siRNA: siRNA PKCδ-4 directed against PKCδ; probably siRNA-d-4, SEQ ID NO:7 and 8 (chain 1 AACTGTTTGTGAATTTGCCTTCCTGTCTC; chain 2 AAAAGGCAAATTCACAAACAGCCTGTCTC; listed as DNA, chemistry not given here)
reduction in PKCδ expression (PKCδ): 55%
TH-Ser40 (60 kDa band) densitometry, increase versus siRNA-NS ([5]; siRNA-transfected N27 cells): 2 fold
total TH levels versus siRNA-NS ([5]; siRNA-transfected N27 cells): similar
increase in DOPAC versus siRNA-NS (N27 cells): 71%
increase in the DA level versus siRNA-NS (N27 cells): 45%
